From ChEMBL document CHEMBL1177817, “Betulin and ursolic acid synthetic derivatives as inhibitors of Papilloma virus” (Bioorg Med Chem Lett, 2010)
The source made the active and inactive calls. No cut-off for these calls is given here.

Experiments:
Format in all cases: functional, organism-based
Influenza A virus [1] = assay: Antiviral activity against influenza A virus H1N1 assessed as inhibition of viral replication
Influenza B virus = assay: Antiviral activity against influenza B virus assessed as inhibition of viral replication
Human alphaherpesvirus 2 = assay: Antiviral activity against HSV2 assessed as inhibition of viral replication
Influenza A virus [2] = assay: Antiviral activity against influenza A virus H3N2 assessed as inhibition of viral replication
Influenza A virus [3] = assay: Antiviral activity against influenza A virus H5N1 assessed as inhibition of viral replication
Human alphaherpesvirus 1 = assay: Antiviral activity against HSV1 assessed as inhibition of viral replication
Hepatitis B virus = assay: Antiviral activity against HBV assessed as inhibition of viral DNA replication at 10 uM
Hepatitis C virus = assay: Antiviral activity against HCV assessed as inhibition of viral replication; settings: Hepacivirus hominis

Compound | Activity (Influenza A virus [1]) | Activity (Influenza B virus) | Activity (Human alphaherpesvirus 2) | Activity (Influenza A virus [2]) | Activity (Influenza A virus [3]) | Activity (Human alphaherpesvirus 1) | Activity (Hepatitis B virus) | Activity (Hepatitis C virus)
C=C(C)[C@@H]1CC[C@]2(COC(=O)/C=C/c3ccc(OC)cc3)CC[C@]3(C)[C@H](CC[C@@H]4[C@@]5(C)CC[C@H](O)C(C)(C)[C@@H]5CC[C@]43C)[C@@H]12 | Active |  |  |  |  |  |  | 
C[C@H]1[C@H](C)CC[C@]2(C(=O)O)CC[C@]3(C)C(=CC[C@@H]4[C@@]5(C)CC/C(=N\OCCC#N)C(C)(C)[C@@H]5CC[C@]43C)[C@H]12 |  | inactive | inactive | inactive | inactive | inactive |  | 
C=C(C)[C@@H]1CC[C@]2(COCCCNCCC#N)CC[C@]3(C)[C@H](CC[C@@H]4[C@@]5(C)CC[C@H](OC(=O)c6cccnc6)C(C)(C)[C@@H]5CC[C@]43C)[C@@H]12 |  | inactive | inactive | inactive | inactive | inactive |  | 
C=C(C)[C@@H]1CC[C@]2(C(=O)O)CC[C@]3(C)[C@H](CC[C@@H]4[C@@]5(C)CC[C@H](OC(=O)c6cccnc6)C(C)(C)[C@@H]5CC[C@]43C)[C@@H]12 |  | inactive | inactive | inactive | inactive | inactive |  | 
C=C(C)[C@@H]1CC[C@]2(COC(=O)c3cccnc3)CC[C@]3(C)[C@H](CC[C@@H]4[C@@]5(C)CC[C@H](OC(=O)c6cccnc6)C(C)(C)[C@@H]5CC[C@]43C)[C@@H]12 |  | inactive | inactive | inactive | inactive | inactive |  | 
C#C[C@@H]1CC[C@]2(CO)CC[C@]3(C)[C@H](CC[C@@H]4[C@@]5(C)CC[C@H](O)C(C)(C)[C@@H]5CC[C@]43C)[C@@H]12 |  | inactive | inactive | inactive | inactive | inactive | inactive | Active
